Experiments:
Type in all cases: cell-based
[1] = system: NCI-H226 mesothelioma cell line; assay: Mesothelioma cell line proliferation assay, NCI-H226 (ATPlite); details: NCI-H226 cells, 6 days with compound, cell viability by ATPlite
Protocol: (§1) Example 57: Activity of Compounds of the Disclosure in Mesothelioma Cell Line Proliferation Assays
(§2) Mesothelioma cell lines, NCI-H226 and NCI-H2052 (both sourced from the ATCC cell culture collection) were plated in 96-well plates (Corning® 96 Well White Polystyrene Microplate clear flat bottom, white polystyrene (TC-Treated)), at 1500 cells/well in full medium (RPMI 1640 ATCC modification with L-glutamine, HEPES, Phenol Red, Sodium Pyruvate, High glucose, Low sodium bicarbonate and 10% fetal bovine serum). Cells were incubated overnight at 37° C. in an incubator with 5% CO2. Then compounds, dissolved in DMSO, were added in dose-response. Cells were incubated with compound dilutions for another 6 days at 37° C. in an incubator with 5% CO2. Cell viability was quantitated using the ATPlite kit (Perkin-Elmer) and the luminescence was read-out using an Envision instrument (Perkin-Elmer). The amount of relative light units produced using the ATPlite kit was used to calculate percent of inhibition.
(§3) The activities of some example compounds are depicted in Table 4. The activity ranges A, B and C refer to EC50 values in the mesothelioma cell line proliferation assay as described as follows: “A”: EC50<1 μM; “B”: 1 μM≤EC50≤10 μM and “C”: EC50>10 μM; NT: not tested.

[2] = system: NCI-H2052 mesothelioma cell line; assay: Mesothelioma cell line proliferation assay, NCI-H2052 (ATPlite); details: NCI-H2052 cells, 6 days with compound, cell viability by ATPlite
Protocol: as §1, §2, §3

[3] = system: YAP/TAZ-TEAD transcription; assay: Reporter gene assay for measuring the inhibition of YAP/TAZ-TEAD transcription (TEAD-responsive element luciferase reporter in Hek293T cells); details: 24 hours incubation
Outline: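 HEK293T cells transiently transfected with a TEAD-responsive luciferase reporter were exposed to compounds for 24 h at 37° C/5% CO2, then luminescence was read. Percent inhibition normalised to vehicle (0%) and positive-control inhibitor (100%); IC50 derived.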

C=CC(=O)N1CCN2c3ccccc3N(c3ccc(C(F)(F)F)cc3)CC2C1 (single isomer, unassigned) [14-En1, (R)- or (S)-1-(6-(4-(trifluoromethyl)phenyl)-1,2,4,4a,5,6-hexahydro-3H-pyrazino[1,2-a]quinoxalin-3-yl)prop-2-en-1-one]
< 1000 nM: EC50 ([1]; Homo sapiens, 144 h) | EC50 ([2]; Homo sapiens, 144 h) | IC50 [3]

C=CC(=O)N1CCN2c3ccccc3N(c3ccc(C(F)(F)F)cc3)CC2C1 (single isomer, unassigned) [14-En2, (R)- or (S)-1-(6-(4-(trifluoromethyl)phenyl)-1,2,4,4a,5,6-hexahydro-3H-pyrazino[1,2-a]quinoxalin-3-yl)prop-2-en-1-one]
< 1000 nM: EC50 [1] | EC50 [2] | IC50 [3]

CC(=O)N1CCN2c3ccccc3N(c3ccc(C(F)(F)F)cc3)CC2C1 (single isomer, unassigned) [15-En2, (R)- or (S)-1-(6-(4-(trifluoromethyl)phenyl)-1,2,4,4a,5,6-hexahydro-3H-pyrazino[1,2-a]quinoxalin-3-yl)ethan-1-one]
< 1000 nM: EC50 [1] | EC50 [2] | IC50 [3]

C=CC(=O)NCC1CN(c2ccc(C(F)(F)F)cc2)c2cccnc2N1C (single isomer, unassigned) [27-En1]
< 1000 nM: EC50 ([1]; Homo sapiens, 144 h) | EC50 ([2]; Homo sapiens, 144 h) | IC50 ([3]; Homo sapiens, HEK-293T, 24 h)

C=CC(=O)NCC1CN(c2ccc(C(F)(F)F)cc2)c2cccnc2N1C (single isomer, unassigned) [27-En2]
< 1000 nM: EC50 [1] | EC50 [2] | IC50 [3]

CC(=O)N1CCN2c3ncccc3N(c3ccc(C(F)(F)F)cc3)CC2C1 (single isomer, unassigned) [29-En1, (R)- or (S)-1-(5-(4-(trifluoromethyl)phenyl)-5,6,6a,7,9,10-hexahydro-8H-pyrazino[1,2-a]pyrido[3,2-e]pyrazin-8-yl)ethan-1-one]
< 1000 nM: EC50 ([1]; Homo sapiens, 144 h) | EC50 ([2]; Homo sapiens, 144 h) | IC50 ([3]; Homo sapiens, HEK-293T, 24 h)

CC(=O)N1CCN2c3nccnc3N(c3ccc(C(F)(F)F)cc3)CC2C1 (single isomer, unassigned) [40-En1, (R)- or (S)-1-(5-(4-(trifluoromethyl)phenyl)-5,6,6a,7,9,10-hexahydro-8H-dipyrazino[1,2-a:2′,3′-e]pyrazin-8-yl)ethan-1-one]
< 1000 nM: EC50 ([1]; Homo sapiens, 144 h) | EC50 ([2]; Homo sapiens, 144 h) | IC50 [3]

CNS(=O)(=O)N1CCN2c3ncccc3N(c3ccc(C(F)(F)F)cc3)CC2C1 (single isomer, unassigned) [45-En2, (R)- or (S)-N-methyl-5-(4-(trifluoromethyl)phenyl)-5,6,6a,7,9,10-hexahydro-8H-pyrazino[1,2-a]pyrido[3,2-e]pyrazine-8-sulfonamide]
< 1000 nM: EC50 ([1]; Homo sapiens, 144 h) | EC50 ([2]; Homo sapiens, 144 h) | IC50 [3]

CC(C)C(=O)N1CCN2c3ncccc3N(c3ccc(C(F)(F)F)cc3)CC2C1 (single isomer, unassigned) [47-En1, (R)- or (S)-2-methyl-1-(5-(4-(trifluoromethyl)phenyl)-5,6,6a,7,9,10-hexahydro-8H-pyrazino[1,2-a]pyrido[3,2-e]pyrazin-8-yl)propan-1-one]
< 1000 nM: EC50 ([1]; Homo sapiens, 144 h) | EC50 ([2]; Homo sapiens, 144 h) | IC50 [3]

CC(=O)NCC1CN(c2ccc(C(F)(F)F)cc2)c2cccnc2O1 (single isomer, unassigned) [49-En1, (R)- or (S)-N-((1-(4-(trifluoromethyl)phenyl)-2,3-dihydro-1H-pyrido[2,3-b][1,4]oxazin-3-yl)methyl)acetamide]
< 1000 nM: EC50 ([1]; Homo sapiens, 144 h) | EC50 ([2]; Homo sapiens, 144 h) | IC50 [3]

CNC(=O)N1CCN2c3ncccc3N(c3ccc(C(F)(F)F)cc3)CC2C1 (single isomer, unassigned) [52-En2, (R)- or (S)-N-methyl-5-(4-(trifluoromethyl)phenyl)-5,6,6a,7,9,10-hexahydro-8H-pyrazino[1,2-a]pyrido[3,2-e]pyrazine-8-carboxamide]
< 1000 nM: EC50 ([1]; Homo sapiens, 144 h) | EC50 ([2]; Homo sapiens, 144 h) | IC50 [3]

CC(=O)NCC1CN(c2ccc(C(F)(F)F)cc2)c2cc(Cl)cnc2O1 (single isomer, unassigned) [75-En2, (R)- or (S)-N-((7-chloro-1-(4-(trifluoromethyl)phenyl)-2,3-dihydro-1H-pyrido[2,3-b][1,4]oxazin-3-yl)methyl)acetamide]
< 1000 nM: EC50 ([1]; Homo sapiens, 144 h) | EC50 ([2]; Homo sapiens, 144 h) | IC50 [3]

CC(=O)NCC1CN(c2ccc(C(F)(F)F)cc2)c2ccc(C)nc2O1 (single isomer, unassigned) [77-En1, (R)- or (S)-N-((6-methyl-1-(4-(trifluoromethyl)phenyl)-2,3-dihydro-1H-pyrido[2,3-b][1,4]oxazin-3-yl)methyl)acetamide]
< 1000 nM: EC50 ([1]; Homo sapiens, 144 h) | EC50 ([2]; Homo sapiens, 144 h) | IC50 [3]

CC(=O)NCC1CN(c2ccc(C(F)(F)F)cc2)c2ccc(C3CC3)nc2O1 (single isomer, unassigned) [81-En1, (R)- or (S)-N-((6-cyclopropyl-1-(4-(trifluoromethyl)phenyl)-2,3-dihydro-1H-pyrido[2,3-b][1,4]oxazin-3-yl)methyl)acetamide]
< 1000 nM: EC50 ([1]; Homo sapiens, 144 h) | EC50 ([2]; Homo sapiens, 144 h) | IC50 ([3]; Homo sapiens, HEK-293T, 24 h)

CC(=O)NCC1CN(c2ccc(C(F)(F)F)cc2)c2ccc(N(C)C)nc2O1 (single isomer, unassigned) [87-En1, (R)- or (S)-N-((6-(dimethylamino)-1-(4-(trifluoromethyl)phenyl)-2,3-dihydro-1H-pyrido[2,3-b][1,4]oxazin-3-yl)methyl)acetamide]
< 1000 nM: EC50 ([1]; Homo sapiens, 144 h) | EC50 ([2]; Homo sapiens, 144 h) | IC50 [3]

C=CC(=O)NC[C@H]1CN(c2ccc(C(F)(F)F)cc2)c2cccnc2N1 [38-En1, (S)—N-((1-(4-(trifluoromethyl)phenyl)-1,2,3,4-tetrahydropyrido[2,3-b]pyrazin-3-yl)methyl)acrylamide]
< 1000 nM: EC50 ([1]; Homo sapiens, 144 h) | EC50 ([2]; Homo sapiens, 144 h) | IC50 ([3]; Homo sapiens, HEK-293T, 24 h)

C=CC(=O)NC[C@@H]1CN(c2ccc(C(F)(F)F)cc2)c2cccnc2N1 [38-En2, (R)-N-((1-(4-(trifluoromethyl)phenyl)-1,2,3,4-tetrahydropyrido[2,3-b]pyrazin-3-yl)methyl)acrylamide]
< 1000 nM: EC50 ([1]; Homo sapiens, 144 h) | EC50 ([2]; Homo sapiens, 144 h) | IC50 ([3]; Homo sapiens, HEK-293T, 24 h)

CC(=O)N1CCN2c3ncccc3N(c3ccc(C(F)(F)F)cn3)CC2C1 (stereo not drawn) [53-En1, 1-(5-(5-(trifluoromethyl)pyridin-2-yl)-5,6,6a,7,9,10-hexahydro-8H-pyrazino[1,2-a]pyrido[3,2-e]pyrazin-8-yl)ethan-1-one]
< 1000 nM: EC50 ([1]; Homo sapiens, 144 h) | EC50 ([2]; Homo sapiens, 144 h) | IC50 [3]

Cc1ccc2c(n1)N1CCC(C(=O)O)CC1CN2c1ccc(C(F)(F)F)cc1 [101-D2, (6aS,8S)— or (6aR,8S)— or (6aR,8R)— or (6aS,8R)-2-methyl-5-(4-(trifluoromethyl)phenyl)-6,6a,7,8,9,10-hexahydro-5H-dipyrido[1,2-a:3′,2′-e]pyrazine-8-carboxylic acid]
< 1000 nM: EC50 ([1]; Homo sapiens, 144 h) | EC50 ([2]; Homo sapiens, 144 h) | IC50 [3]

Cc1ccc2c(n1)N1CCC(C(=O)O)CC1CN2c1ccc(C(F)(F)F)cc1 [101-D4, (6aS,8S)— or (6aR,8S)— or (6aR,8R)— or (6aS,8R)-2-methyl-5-(4-(trifluoromethyl)phenyl)-6,6a,7,8,9,10-hexahydro-5H-dipyrido[1,2-a:3′,2′-e]pyrazine-8-carboxylic acid]
< 1000 nM: EC50 [1] | EC50 [2] | IC50 [3]

O=C(NO)C1CCN2c3ccccc3N(c3ccc(C(F)(F)F)cc3)CC2C1 [116B-En2, (6aS,8S)- or (6aR,8S)- or (6aR,8R)- or (6aS,8R)-N-hydroxy-5-(4-(trifluoromethyl)phenyl)-6,6a,7,8,9,10-hexahydro-5H-pyrido[1,2-a]quinoxaline-8-carboxamide]
< 1000 nM: EC50 ([1]; Homo sapiens, 144 h) | EC50 ([2]; Homo sapiens, 144 h) | IC50 [3]

NC(=O)C1CCN2c3ccccc3N(c3ccc(C(F)(F)F)cc3)CC2C1 (stereo not drawn) [117B-En2, (cis)- or (trans)-5-(4-(trifluoromethyl)phenyl)-6,6a,7,8,9,10-hexahydro-5H-pyrido[1,2-a]quinoxaline-8-carboxamide]
< 1000 nM: EC50 ([1]; Homo sapiens, 144 h) | EC50 ([2]; Homo sapiens, 144 h) | IC50 [3]

O=C(O)C1(F)CCN2c3ccccc3N(c3ccc(C(F)(F)F)cc3)CC2C1 [123-D1, (6aS,8S)- or (6aR,8S)- or (6aR,8R)- or (6aS,8R)-8-fluoro-5-(4-(trifluoromethyl)phenyl)-6,6a,7,8,9,10-hexahydro-5H-pyrido[1,2-a]quinoxaline-8-carboxylic acid]
< 1000 nM: EC50 ([1]; Homo sapiens, 144 h) | EC50 ([2]; Homo sapiens, 144 h) | IC50 ([3]; Homo sapiens, HEK-293T, 24 h)

C=CC(=O)NCC1CN(c2ccc(C(F)(F)F)cc2)c2ccccc2N1CC#N (stereo not drawn) [compound 3, N-((1-(cyanomethyl)-4-(4-(trifluoromethyl)phenyl)-1,2,3,4-tetrahydroquinoxalin-2-yl)methyl)acrylamide]
< 1000 nM: EC50 ([1]; Homo sapiens, 144 h) | EC50 ([2]; Homo sapiens, 144 h) | IC50 ([3]; Homo sapiens, HEK-293T, 24 h)
